Results reported in patent US12545677B2, “Compounds useful as factor XIa inhibitors” (JANSSEN PHARMACEUTICA NV, priority 2020, dated 2026).

Legend:
human plasma kallikrein = human plasma kallikrein (Homo sapiens, UniProt P03952); experiment: Kallikrein inhibition assay utilizing quenched AMC peptide substrate; type: biochemical; conditions: read-out: Plasma kallikrein (PK) IC50
Method: Biological Example 2: Kallikrein Inhibition Assay
Utilizing Quenched AMC Peptide Substrate
A fluorescence intensity-based assay was used to monitor inhibition of human plasma kallikrein. The peptide substrate, Z-Gly-Pro-Arg-AMC (Purchased from Bachem; Catalog #1-1150) was chosen based on its relatively low KM for kallikrein which enables running the assay at lower substrate concentrations to control background fluorescence. The kinetic parameters for this substrate were determined by fitting titration data to the Michaelis-Menten equation yielding a KM=40 μM, kcat=0.76 s^−1, and kcat/KM=18932 M^−1s^−1.
Kallikrein FLINT assay was used with the following Z-Gly-Pro-Arg-AMC assay buffer: 50 mM Tris, pH 7.5, 100 mM NaCl, 5 mM CaCl2, 0.1 mg/mL BSA, 0.03% CHAPS. Assay buffer was prepared by mixing all ingredients fresh. 2× Z-Gly-Pro-Arg-AMC peptide substrate was prepared by diluting 10 mM stock into 1× assay buffer for a 100 μM working concentration (50 μM final concentration). The 2× kallikrein stock solution was prepared by diluting 14.76 μM stock in 1× assay buffer for a 4 nM working stock solution (2 nM final concentration).
Test compound(s) were run in an 11-point, 3-fold serial dilution with a final top compound concentration of 1 μM. Final DMSO in assay: 2% DMSO. 2 nM kallikrein and test compound were pre-incubated for 30 minutes and 50 μM substrate was then added to initiate the reaction. The assay was linear using 2 nM kallikrein greater than 30 minutes. More specifically, the assay was run as follows: • 100 nL of 1 mM test compound was dispensed into a black 384-well non-binding Greiner BioOne 784900 plate for 10 μM final concentration with 1% DMSO final concentration; • 5 μL of 1× assay buffer was dispensed to columns 24 (low control) and 5 μL 2× human kallikrein enzyme solution was dispensed to columns 1-23 (column 23 high control); • the plate was centrifuged with a cover plate at 500 rpm for 1 min • the plate was pre-incubated for 30 minutes at room temperature with plate covered; • 5 μL of 2× Z-Gly-Pro-Arg-AMC peptide substrate was dispensed into the entire plate, columns 1-24; • the plate was centrifuged with a “cover” plate at 500 rpm for 1 min; • the plate was read kinetically monitoring fluorescence intensity on the BMG PHERAStar at room temperature, using fluorescence module F1 340 mm/440 mm.
Percent inhibition (IC50) curves were generated per compound tested, and data was analyzed using a 4-parameter logistic fit using GeneData Screener. […]

human hepatocytes = experiment: In vitro metabolism in human cryopreserved hepatocytes; type: in vitro ADME
Method: In Vitro Metabolism of in Human Cryopreserved Hepatocytes
The human hepatocytes used for in vitro metabolism of the compound of formula (I-A) were purchased from Bioreclamation IVT (Westbury, NY); cryopreserved human hepatocytes (lot number: UYG).
Cryopreserved hepatocytes were rapidly thawed […] vials were placed in a 37° C. water bath for approximately 90 sec, then immediately added to pre-warmed hepatocyte thawing media. The cells were resuspended within the media and then centrifuged at 700×g for 7 minutes at room temperature.
The supernatant was discarded, and the cells were resuspended in 2 mL of Krebs-Henseleit buffer containing 12.5 mM HEPES pH 7.4 (KHB). Cell viability and yield were determined by Trypan Blue exclusion. The hepatocytes were then diluted in KHB to a cell concentration of 2×10^6 cells/mL (500 μL/well in 10 mL glass tubes). The tubes were placed on a rotary shaker in a humidifier incubator supplied with 5% CO2 and allowed 15 minutes acclimation at 37° C. prior to use. The compound of formula (I-A) or positive control, diclofenac (10 μM), in KHB was then added to the hepatocytes to achieve a final concentration of 10 μM and cell concentration of 1×10^6 cells/mL (1000 μL final incubation volume). Cells were incubated for zero or 3 hours. At the end of the incubation period, the cells were quenched with 6-volumes of ice-cold acetonitrile containing 0.02% formic acid, vortexed and sonicated (5 min). Precipitated proteins were pelleted by centrifugation (3000 rpm, 10 minutes, 4° C.) and the supernatant was transferred to borosilicate tubes and evaporated to dryness under a gentle stream of nitrogen.
The resulting residue after evaporation was reconstituted in 250 μL of water:acetonitrile (9:1 v/v) containing 0.01% formic acid with sonication and vortexing to aid solubilization of drug-derived materials prior to filtration using 0.45μ nylon filter at 10,000×g at room temperature for 10 minutes. The filtrate was transferred to a 96-well plate for liquid chromatography/ultraviolet/mass spectrometry (LC-UV/MS) analysis.
LC/UV/MS (Liquid Chromatography/Ultraviolet/Mass Spectrometry)
LTQ/Orbitrap (Thermo Scientific, Inc., Bremen, Germany) was carried out by data-dependent accurate mass measurements at resolving powers of 15,000 for full scan MS and 7,500 for MS^2 (also known as MS/MS or tandem mass spec) under single ion locked mass mode.
Quantification of the unchanged drug and its metabolites was carried out by integration of the individual chromatographically separated UV peaks and provided the percentage of total peak area.

human plasma kallikrein, sequence (P03952 391-638 limits assumed): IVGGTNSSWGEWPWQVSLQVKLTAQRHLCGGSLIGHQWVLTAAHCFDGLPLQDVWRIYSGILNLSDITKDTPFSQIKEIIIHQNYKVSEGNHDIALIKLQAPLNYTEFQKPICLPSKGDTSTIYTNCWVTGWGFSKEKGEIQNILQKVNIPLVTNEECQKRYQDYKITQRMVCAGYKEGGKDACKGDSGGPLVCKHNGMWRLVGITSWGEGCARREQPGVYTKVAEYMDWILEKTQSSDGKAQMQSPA
human plasma kallikrein, sequence (P03952 20-390 partner limits assumed): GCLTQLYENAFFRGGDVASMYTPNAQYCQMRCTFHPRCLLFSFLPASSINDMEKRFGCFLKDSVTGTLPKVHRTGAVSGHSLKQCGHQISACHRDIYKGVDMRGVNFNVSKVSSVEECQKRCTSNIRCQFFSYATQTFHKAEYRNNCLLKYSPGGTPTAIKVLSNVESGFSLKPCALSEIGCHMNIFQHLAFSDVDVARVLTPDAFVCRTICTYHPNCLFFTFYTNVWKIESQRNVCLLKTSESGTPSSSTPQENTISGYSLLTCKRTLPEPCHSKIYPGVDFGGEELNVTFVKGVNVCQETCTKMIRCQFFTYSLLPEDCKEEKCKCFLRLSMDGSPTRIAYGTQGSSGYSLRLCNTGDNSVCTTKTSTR

O=C(O)c1nccc(-c2cnc([C@@H]3CC[C@@H]4CC(c5c(-n6cnnn6)ccc(Cl)c5F)=CC(=O)N43)[nH]2)c1F [Compound of formula (II-A), 4-(2-((3S,8aR)-7-(3-chloro-2-fluoro-6-(1H-tetrazol-1-yl)phenyl)-5-oxo-1,2,3,5,8,8a-hexahydroindolizin-3-yl)-1H-imidazol-5-yl)-3-fluoropicolinic acid]
IC50 (human plasma kallikrein): 11 nM | identified as metabolite of the compound of formula (I-A) (human hepatocytes; human hepatocytes, carboxylic acid metabolite): a metabolite in human hepatocytes

O=C1C=C(c2c(-n3cnnn3)ccc(Cl)c2F)C[C@H]2CC[C@@H](c3ncc(-c4ccnc(CO)c4F)[nH]3)N12 [Compound of formula (I-A), (3S,8aR)-7-(3-Chloro-2-fluoro-6-(1H-tetrazol-1-yl)phenyl)-3-(5-(3-fluoro-2-(hydroxymethyl)pyridin-4-yl)-1H-imidazol-2-yl)-2,3,8,8a-tetrahydroindolizin-5(1H)-one]
turnover in human hepatocytes (human hepatocytes; 10 μM, 1×10^6 cells/mL, 3 hours): low turnover | major metabolic softspot (human hepatocytes; human hepatocytes): (3-fluoropyridin-2-yl) methanol moiety | metabolites generated from the incubation (human hepatocytes; human hepatocytes, 10 μM, 3 hours): three oxidative and two glucuronide metabolites
